# From PubChem BioAssay (NCI)
#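 Step 1: Grow cells in 96-well plates. Step 2: Expose to compound for 48 hours at 5 concentrations. Step 3: Interpolate endpoints linearly; if unreached, use highest concentration. GI50 marks 50% less growth. TGI: total growth inhibition.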
# Key:
# Assay in all cases: DTP human tumour cell line panel, 48 h
# UACC-257 melanoma = system: UACC-257 melanoma
# HT29 colon = system: HT29 colon
# RPMI-8226 leukemia = system: RPMI-8226 leukemia
# M14 melanoma = system: M14 melanoma
# DU-145 prostate = system: DU-145 prostate
# OVCAR-3 ovarian = system: OVCAR-3 ovarian
# SNB-19 CNS = system: SNB-19 CNS
# SF-295 CNS = system: SF-295 CNS
# NCI-H460 lung = system: NCI-H460 lung
# K-562 leukemia = system: K-562 leukemia
# SK-MEL-5 melanoma = system: SK-MEL-5 melanoma
# SF-539 CNS = system: SF-539 CNS
# CCRF-CEM leukemia = system: CCRF-CEM leukemia
# HCT-15 colon = system: HCT-15 colon
# A549 NSCLC = system: A549 NSCLC
# OVCAR-5 ovarian = system: OVCAR-5 ovarian
# IGROV1 ovarian = system: IGROV1 ovarian
# HCT-116 colon = system: HCT-116 colon
# TK-10 renal = system: TK-10 renal
# HL-60(TB) leukemia = system: HL-60(TB) leukemia
# OVCAR-8 ovarian = system: OVCAR-8 ovarian
# 786-0 renal = system: 786-0 renal
# MDA-MB-231 breast = system: MDA-MB-231 breast
# SW-620 colon = system: SW-620 colon
# KM12 colon = system: KM12 colon
# A498 renal = system: A498 renal
# PC-3 prostate = system: PC-3 prostate
# NCI-H522 lung = system: NCI-H522 lung
# MCF7 breast = system: MCF7 breast
smiles,measurement,setting,value
Cn1c(=O)c(-c2ccccc2Cl)cc2cnc(NC3CCOCC3)nc21,TGI,UACC-257 melanoma,> 25 µM
same,GI50,HT29 colon,7.02 µM
same,TGI,HT29 colon,> 25 µM
same,GI50,RPMI-8226 leukemia,> 15.7 µM
same,TGI,RPMI-8226 leukemia,> 25 µM
same,GI50,M14 melanoma,5.66 µM
same,TGI,M14 melanoma,> 25 µM
same,GI50,DU-145 prostate,12.3 µM
same,TGI,DU-145 prostate,> 25 µM
same,GI50,OVCAR-3 ovarian,> 22.7 µM
same,TGI,OVCAR-3 ovarian,> 25 µM
same,GI50,SNB-19 CNS,> 25 µM
same,TGI,SNB-19 CNS,> 25 µM
same,GI50,SF-295 CNS,12.1 µM
same,TGI,SF-295 CNS,> 25 µM
same,GI50,NCI-H460 lung,11.1 µM
same,TGI,NCI-H460 lung,> 25 µM
same,GI50,K-562 leukemia,9.36 µM
same,TGI,K-562 leukemia,> 25 µM
same,GI50,SK-MEL-5 melanoma,11 µM
same,TGI,SK-MEL-5 melanoma,> 25 µM
same,GI50,SF-539 CNS,11.1 µM
same,TGI,SF-539 CNS,> 25 µM
same,GI50,CCRF-CEM leukemia,14.8 µM
same,TGI,CCRF-CEM leukemia,> 25 µM
same,GI50,HCT-15 colon,9.82 µM
same,TGI,HCT-15 colon,> 25 µM
same,GI50,A549 NSCLC,18.2 µM
same,TGI,A549 NSCLC,> 25 µM
same,GI50,OVCAR-5 ovarian,18.5 µM
same,TGI,OVCAR-5 ovarian,> 25 µM
same,GI50,IGROV1 ovarian,9.42 µM
same,TGI,IGROV1 ovarian,> 25 µM
same,GI50,HCT-116 colon,8.05 µM
same,TGI,HCT-116 colon,> 25 µM
same,GI50,TK-10 renal,6.19 µM
same,TGI,TK-10 renal,> 22.9 µM
same,GI50,HL-60(TB) leukemia,10.5 µM
same,TGI,HL-60(TB) leukemia,> 25 µM
same,GI50,OVCAR-8 ovarian,10.2 µM
same,TGI,OVCAR-8 ovarian,> 25 µM
same,GI50,786-0 renal,13.1 µM
same,TGI,786-0 renal,> 25 µM
same,GI50,MDA-MB-231 breast,7.69 µM
same,TGI,MDA-MB-231 breast,> 25 µM
same,GI50,SW-620 colon,14.8 µM
same,TGI,SW-620 colon,> 25 µM
same,GI50,KM12 colon,21.1 µM
same,TGI,KM12 colon,> 25 µM
same,GI50,A498 renal,3.34 µM
same,TGI,A498 renal,15.5 µM
same,GI50,PC-3 prostate,21.4 µM
same,TGI,PC-3 prostate,> 25 µM
same,GI50,NCI-H522 lung,12.6 µM
same,TGI,NCI-H522 lung,> 25 µM
same,GI50,MCF7 breast,> 25 µM
same,TGI,MCF7 breast,> 25 µM
